Measurements reported in US9023853B2, “Janus kinase 2 (JAK2) inhibitor for the treatment of lupus” (Cephalon, Inc., priority 2010, dated 2015).

Legend:
Assay type in all cases: in vivo, mouse
[1] = tested on: IL-12; test: Serum IL-12 (Luminex) in MRL/lpr mice
Method: For the processing of serum samples for cytokine analysis, frozen plasma at -80° C. was thawed on ice, vortexed, and centrifuged for 10 minutes to remove debris and aggregates. A total of 25-50 μL of serum was used for Luminex® assays following the manufacturer's instructions. Ten different mouse cytokines were measured using the mouse cytokine 10-plex bead kit (Invitrogen, Carlsbad, Calif., no. LMC0001). Briefly, filter plates (Millipore, Billerica, Mass., no. […]10), were pre-wet with 200 μL of wash solution (kit component) and 25 μL of beads were added per well. Serum samples were diluted and a total volume of 50 μL was added per well (ie, 25 μL of sample serum plus 25 μL of assay diluent as provided by the manufacturer). Plates with beads were incubated for 2 hours at room temperature (RT) on an orbital shaker in the dark. At the end of the incubation, plate(s) were washed twice in kit buffer, secondary biotinylated antibody was added at a 1:10 dilution (100 μL) in biotin diluent provided with the kit. Plates were incubated at RT for 1 hour in the dark then washed twice in kit buffer. Strepavidin in assay diluent was added at 100 μL per well, then incubated for 30 minutes at RT in the dark. The plates were washed 3 times then 100 μL of kit wash solution was added and agitated for 2-3 minutes at RT in the dark. […]

[2] = tested on: pSTAT3; test: Pharmacodynamic renal pSTAT3 (JAK2 inhibition marker) in MRL/lpr mice; settings: four hours after final dosing at EOS
From the text: MRL/lpr mice were first randomized, initial bleeds collected, and body weights recorded for baseline measurements (FIG. 1). All mice were individually ear tagged and were monitored throughout the entire experiment (e.g., “Group#-Cage letter-Mouse#”, so “3B5”=Group 3 (G3), cage B, mouse#5). Mice were age-matched and treatment started at 6-8 weeks of age. Cheek bleeds and urine collection continued weekly throughout the experiment. Mice were individually tracked for several parameters including cytokine and ANA levels, proteinuria, body mass, lymphomegaly, general health, and mortality. All parameters were evaluated bi-monthly except mortality which was monitored daily. All groups consisted of a minimum of at least 10-12 mice per group. Ex vivo experiments included flow cytometry analyses for plasma cells, serum complement C3 and ANA levels; urine protein and leukocytes, serum cytokine profiling, renal histo pathology, and determination of compound levels (pharmacokinetics (PK)) in the spleen, kidney and plasma. Mice were tracked on an individual basis. For all data, mice were grouped into populations and data graphed as mean±SEM. Bi-monthly observations and data collected were recorded for each group, except mortality which was performed daily. End-stage readouts were analyzed as described in the MATERIALS AND METHODS section (above) and in FIG. 1. […]

[3] = tested on: IL-13; test: Serum IL-13 in NZM mice
Method: For the processing of serum samples for cytokine analysis, frozen plasma at −80° C. was thawed on ice, vortexed, and centrifuged for 10 minutes to remove debris and aggregates. A total of 25-50 μL of serum was used for Luminex® assays following the manufacturer's instructions. Ten different mouse cytokines were measured using the mouse cytokine 10-plex bead kit (Invitrogen, Carlsbad, Calif., no. LMC0001). Briefly, filter plates (Millipore, Billerica, Mass., no. MAIPSWU10), were pre-wet with 200 μL of wash solution (kit component) and 25 μL of beads were added per well. […]
Age mated, female, NZM or NZW/LacJ, mice were matured for the study of lupus nephritis for a total of 7 months or 210 days at which time urine was collected for proteinuria detection. Mice with 0.5-1.0 mg/ml of urine protein as determined by an optical density-based total protein precipitation assay and cross-checked for 30-300 mg/dl of protein as determined by a stick assay were considered proteinuria positive and selected for study entry. […] End-stage lupus nephritis was evaluated by histopathology and scored by a board certified pathologist for the assessment of total renal damage in diseased animals using the scoring method described by Smith et al (Smith, Dong et al. 2007). […]

[4] = tested on: pSTAT3; test: Pharmacodynamic kidney pSTAT3 (JAK2 inhibition marker) in NZM mice; settings: vs vehicle or CTX, p<0.01
Method: Age mated, female, NZM or NZW/LacJ, mice were matured for the study of lupus nephritis for a total of 7 months or 210 days at which time urine was collected for proteinuria detection. Mice with 0.5-1.0 mg/ml of urine protein as determined by an optical density-based total protein precipitation assay and cross-checked for 30-300 mg/dl of protein as determined by a stick assay were considered proteinuria positive and selected for study entry. Groups were normalized to contain a Gaussian distribution of proteinuria positive animals (i.e., ⅓ low proteinuria, ⅓ medium, ⅓ high) then randomized between groups before ear marking and taking baseline measures including urine and serum collections. A total of five mice from the total population were randomly selected for baseline kidney histology evaluation. Treatments and tests for each group are as described in FIG. 12. Briefly, with a minimum of 10 mice per group, COMPOUND A was administered at 100 mg/kg or 55 mg/kg, both twice a day and orally. […] Vehicle included 3% DMSO, 10% Solutol and 87% PBS. […] End-stage lupus nephritis was evaluated by histopathology and scored by a board certified pathologist for the assessment of total renal damage in diseased animals using the scoring method described by Smith et al (Smith, Dong et al. 2007). […] Day-98 or “end of treatment/study” represents 310 days of age for the NZM animals.

## CN1CCN(c2cccc(Nc3nc4c(-c5ccc(S(C)(=O)=O)cc5)cccn4n3)c2)CC1 [COMPOUND A, [8-(4-methanesulfonyl-phenyl)-[1,2,4]triazolo[1,5-a]pyridin-2-yl]-[3-(4-methyl-piperazin-1-yl)-phenyl]-amine]
[1]; 55 mg/kg p.o. b.i.d.
  serum IL-12 decrease compared to vehicle: 50.7%
[1]; 100 mg/kg p.o. b.i.d.
  serum IL-12 decrease compared to vehicle: 56.1%
[2]; 55 mg/kg
  renal pSTAT3: Significant reductions
[2]; 100 mg/kg
  renal pSTAT3: Significant reductions
[3]; 55 mg/kg
  serum IL-13 decrease compared to vehicle: 86.2%
[3]; 100 mg/kg
  serum IL-13 decrease compared to vehicle: 79.5%
[4]
  levels of pSTAT3 in the kidneys: significantly lower
